Laboratory results as given in BindingDB's records for patent US12168664 (Columbia University, 2024).

Target: Retinol-binding protein 4 (Homo sapiens, UniProt P02753)
Experiment: Scintillation Proximity RBP4 Binding Assay
Method: Untagged human RBP4 purified from the urine of tubular proteinuria patients was purchased from Fitzgerald Industries International. It was biotinylated using the EZ-Link Sulfo-NHS-LC-Biotinylation kit from Pierce following the manufacturer's recommendations. […] Nonspecific binding was determined in the presence of 20 μM of unlabeled retinol. The reaction mix was assembled in the dark under dim red light. The plates were sealed with clear tape (TopSeal-A: 96-well microplate, PerkinElmer), wrapped in the aluminum foil, and allowed to equilibrate 6 hours at room temperature followed by overnight incubation at +4° C. Radiocounts were measured using a TopCount NXT counter (Packard Instrument Company).

| IC50 | SMILES |
| --- | --- |
| > 3 µM | O=C(c1c[nH]c2cnccc12)N1C[C@H]2C[C@@H](c3ccccc3C(F)(F)F)C[C@H]2C1 [US12168664, Compound 8a] |
| > 3 µM | O=C(c1c[nH]c2ccncc12)N1C[C@H]2C[C@@H](c3ccccc3C(F)(F)F)C[C@H]2C1 [US12168664, Compound 8b] |
